Data from US10709750B2, “Female menopause alleviation use of composition containing composite extract of red clover and pomegranate as active ingredient” (HLSCIENCE CO., LTD, priority 2014, dated 2020).

What was measured:
Assay type in all cases: in vivo
Conditions in all cases: 120 mg/kg po; estradiol 0.03 μg/head sc
OVX ddY mice [1] = test: Histology of abdominal fat pad, uterus and liver in OVX ddY mice
Protocol: (§1) Optimal amounts of red clover extract or pomegranate extract were suspended or dissolved in sterile distilled water, and orally administered at a dose of 10 ml/kg once daily for 84 days from 28 days after OVX. That is, red clover extract and pomegranate extract single formula, and red clover:pomegranate extract 1:1, 1:2, 1:4, 1:6, 1:8, 2:1, 4:1, 6:1 and 8:1 (g/g) mixture 120 mg/kg were each orally administered for 84 days, and sham control and OVX control were orally administered with only sterile distilled water as a vehicle at the same dose for the same period instead of the test material, and according to earlier researchers' method [Chiba et al., 2003; Murakami et al., 2007; Tousen et al., 2011], 0.03 ug of 17β-estradiol (Sigma-Aldrich, St. Louise, Mo., USA) was dissolved in 0.2 ml of sterile saline, and subcutaneously administered to back skin at a dose of 0.2 ml/mouse (0.03 μg/head/day) once daily for 84 days from 28 days after OVX surgery (Table 15, FIG. 18). The administration dose of mixed formula was set higher 12 times than a human clinical dose of 600 mg, i.e., 600 mg/60 kg)×12=120 mg/kg, in consideration of a body surface area of mouse, and the dose of each of red clover extract and pomegranate extract single formula was also set as 120 mg/kg for direct comparative evaluation of efficacy.
(§2) More specifically, the anti-obesity and estrogen-like effects were tested as follows. The body weights on OVX surgery date, 1 day before administration (27 days after OVX), the start date of administration, and from the first day after start of administration up to the time of final sacrifice at least once a week were each recorded, and change amounts of body weights, i.e., body weight gains, for the recovery period after OVX (menopausal disorder induction period) and 12 weeks after start of administration were measured. Food consumption (1, 3, 7, 28, 56 and 83 days after start of administration), serum estradiol levels, amounts of body fat and abdominal fat, weights of abdominal fat pad and uterus, histological changes of uterus and abdominal fat pads (changes in abdominal fat pad thickness and mean adipocyte diameter, thickness of uterus total, epithelium and mucosa, and percentage of uterine glands in the mucosa (FIG. 19) were observed.
Furthermore, to ascertain the protective effect against fatty liver, testing was conducted as follows. Liver weight, serum AST and ALT levels, and histological changes of liver (changes in mean hepatocyte diameter and region with hepatic degeneration showing fatty change) were observed.

OVX ddY mice [2] = test: Bone mineral density and fat density (DEXA) in OVX ddY mice
Protocol: as §1, §2
(§3) The osteoporosis reduction effect was ascertained through histological changes in wet, dry and ash weights of femurs, BMD (FIG. 20), bone strength (FIG. 21), serum osteocalcin and bALP levels, bone mass and structure (trabecular bone mass, trabecular bone number, thickness and length, and cortical bone thickness), and bone resorption (osteoclast cell number and osteoclast cell surface (OS/BS)).

OVX ddY mice [3] = test: Femur histomorphometry in OVX ddY mice
Protocol: as §1, §3

OVX ddY mice [4] = test: Femur weights in OVX ddY mice
Protocol: as §1, §3

## C[C@]12CC[C@@H]3c4ccc(O)cc4CC[C@H]3[C@@H]1CC[C@@H]2O [Estradiol, 17β-estradiol]
OVX ddY mice [1]
  Change in percentage of uterine glands in the uterine mucosa vs OVX control: 180.37%
  Change in region with hepatic fatty degeneration vs OVX control: −44.73%
  Change in uterine epithelium mean thickness vs OVX control: 170.17%
  Change in uterine mucosa mean thickness vs OVX control: 196.04%
  Change in uterus total mean thickness vs OVX control: 181.27%
  Hepatic steatosis regions: 43.43 ± 6.53^ac %
  Left uterine horn epithelium thickness: 20.75 ± 4.52^ac μm
  Left uterine horn mucosa layer thickness: 598.74 ± 153.51^ac μm
  Left uterine horn total thickness: 1593.32 ± 371.85^bc μm
  Mean adipocyte diameters: 67.49 ± 14.77^ac μm
  Mean hepatocyte diameters: 18.45 ± 3.66^ac μm
  Uterine gland regions: 34.93 ± 4.60^ac %
OVX ddY mice [2]
  Bone mineral density, right femur: 0.0259 ± 0.0008^bc g/cm^2
  Bone mineral density, total body: 0.0237 ± 0.0004^ac g/cm^2
  Change in amount of abdominal fat vs OVX control: −35.00%
  Change in amount of body fat vs OVX control: −33.02%
  Change in mean total body bone mineral density vs OVX control: 9.86%
  Change in total femur bone mineral density vs OVX control: 10.78%
  Fat density, abdominal cavity: 26.75 ± 4.22^ac % of body mass
  Fat density, total body: 23.42 ± 4.24^ac % of body mass
OVX ddY mice [3]
  Change in femur OS/BS vs OVX control: −37.50%
  Change in femur cortical bone thickness vs OVX control: 21.85%
  Change in femur mean trabecular bone number vs OVX control: 92.68%
  Change in femur osteoclast cell number vs OVX control: −55.15%
  Change in femur trabecular bone mass vs OVX control: 73.01%
  Change in mean length of femur trabecular bone vs OVX control: 89.04%
  Change in mean thickness of femur trabecular bone vs OVX control: 70.56%
  Left femur Cbt: 184.17 ± 8.40^eg
  Left femur OS/BS: 13.12 ± 1.41^eg
  Left femur Ocn: 7.63 ± 1.06^ab
  Left femur TV/BV: 29.89 ± 5.24^ab
  Left femur Tbl: 905.51 ± 146.34^g
  Left femur Tbn: 9.88 ± 1.36^eg
  Left femur Tbt: 55.34 ± 8.99^eg
OVX ddY mice [4]
  Change in femur absolute ash weight vs OVX control: 30.35%
  Change in femur absolute dry weight vs OVX control: 14.93%
  Change in femur absolute wet weight vs OVX control: 5.79%
  Change in femur relative ash weight vs OVX control: 57.03%
  Change in femur relative dry weight vs OVX control: 38.22%
  Change in femur relative wet weight vs OVX control: 27.75%
  Femur absolute ash weight: 0.033 ± 0.002^ac g
  Femur absolute dry weight: 0.058 ± 0.004^gi
  Femur absolute wet weight: 0.094 ± 0.007 g
  Femur relative ash weight: 0.092 ± 0.007^ac % of body weight
  Femur relative dry weight: 0.162 ± 0.016^gi % of body weight
  Femur relative wet weight: 0.264 ± 0.032^ac % of body weight
